Measured values published in patent US4551547A, “Biocidal 2-aryl-1, 3-cyclopentanedione enol ester compounds” (Union Carbide Corporation, priority 1983, dated 1985).

Columns and labels:
Mustard = test: Preliminary herbicide seed germination test (pre-emergent), mustard; type: in vivo, Brassica pincea var. foliosa (Florida broadleaf); parameters: key: 5: no seedling emerged; 4: few seedlings emerged and/or very severe stunting; 3: moderate reduction in stand and/or moderate stunting.; 2: very slight reduction in stand and/or slight stunting; 1: no injury, seedlings appear no different with respect to stand or growth than untreated controls; details: Table II; ten to twelve days after application
Protocol: (§1) Suspensions of the test compounds were prepared by dissolving one gram of compound in 50 milliliters of acetone in which had been dissolved 0.1 gram (10 percent of the weight of compound) of an alkylphenoxyethanol sufactant, as an emulsifying or dispersing agent. The resulting solution was mixed into 160 milliliters of water to give roughly 200 milliliters of a suspension containing the compound in finely divided form. The thus prepared stock suspension contained 0.5 percent by weight of compound. The test concentrations employed in the tests described below were obtained by diluting the stock suspension with water. The test procedures were as follows:
The following seeds were used in this test:
Mustard--Brassica pincea var. foliosa (Florida broadleaf)
Two […] mixtures were prepared as follows:
Each of the above mixtures was rolled separately in 5 gallon containers for approximately one-half hour on ball mill to insure uniform mixing of seeds and soil. For each compound four 3-inch pots were filled with soil to within 11/2 inches of top of pots. To two of these pots were added 70 cc. of Mixture I. To the remaining 2 pots were added 70 cc. of Mixture II. The seed-soil mixture was tamped firmly, and the pots were removed to the greenhouse and watered lightly. About 2 hours after planting, 25 milliliters of the test formulation were added to one pot containing Mixture I and one pot containing Mixture II. An equal volume of a water solution containing acetone and an emulsifier in the same concentration as the herbicidal mixture but without the candidate herbicide was also added to each of the soil-seed mixtures. These pots are used as check or control units. The test compounds were formulated by diluting the stock suspension with water to obtain the desired concentration of the compound in parts per million of the final formulation. Each compound was tested at the same concentration. […] Ratings were made according to the following designations: […]

[1] = system: egg of the two-spotted mite; test: Mite Ovicide Test (eggs); type: in vivo, Tetranychus urticae (Koch); parameters: key to Miticidal, Egg: A: Excellent Control; B: Partial Control; No Control; details: Table II; unhatched eggs after four days
Protocol: Suspensions of the test compounds were prepared by dissolving one gram of compound in 50 milliliters of acetone in which had been dissolved 0.1 gram (10 percent of the weight of compound) of an alkylphenoxyethanol sufactant, as an emulsifying or dispersing agent. The resulting solution was mixed into 160 milliliters of water to give roughly 200 milliliters of a suspension containing the compound in finely divided form. The thus prepared stock suspension contained 0.5 percent by weight of compound. The test concentrations employed in the tests described below were obtained by diluting the stock suspension with water. The test procedures were as follows: The test organism was the egg of the two-spotted mite (Tetranychus urticae (Koch)), as obtained from adults reared on […] bean plants under controlled conditions of 80±5° F. and 50±5 percent relative humidity. Heavily infested leaves from a stock culture were placed on the primary leaves of two bean plants six to eight inches in height growing in a two-and-a-half inch clay pot. Females were allowed to oviposit for a period of 48 hours and the leaves of the infested plants were dipped in a solution containing 800 parts of tetraethyl pyrophosphate per million parts of water in order to destroy the reproductory forms and thus prevent further egg laying. […] The plants were allowed to dry thoroughly. The test compounds were formulated by diluting the stock suspension with water to give a suspension containing varying amounts of test compound per million parts of final formulation. The potted plants (one pot per compound) were placed on a revolving turntable and sprayed with 100-110 milliliters of test compound formulation by use of a DeVilbis spray gun set at 40 spig. air pressure. This application which lasted 30 seconds, was sufficient to wet the plants to run-off. As a control, 100-110 milliliters of a water solution containing acetone and emulsifier in the same concentrations as the test compound formulation, but containing no test compound, were also sprayed on plants infested with eggs. The sprayed plants were held at 80±5° F. and 50±5 percent relative humidity for four days, after which a microscopic examination was made of unhatched (dead) and hatched (living) eggs. In these tests the pesticidal activity of the compounds against mites and mite eggs was rated as follows: Tests were conducted in accordance with the procedures given at pages 17 to 21 supra. The results are expressed in the same manner as used in Table II, except with respect to miticidal activity. For mite adult and mite egg comparison purposes, results are given in parts per million (ppm) required for a 50 percent kill of mites or eggs, respectively.

Soybean = test: Post-emergent herbicidal test, soybean; type: in vivo; parameters: key: 1: no perceptible injury; 2: intermediate degrees of injury; 3: intermediate degrees of injury; 4: intermediate degrees of injury; 5: the plant was dead; details: Table II; 2500 parts per million, after ten days
Protocol: as §1
Experiments were also conducted to determine the phytotoxicity of representative compositions with respect to healthy fresh plants. Solutions of the compounds were prepared as described above to provide a concentration of 2500 parts per million of the test compound. The test plants were sprayed in accordance with the procedure described above for the Mite Foliage Spray Test so as to deliver approximately 100 milliliters of test solutions to the leaves of each plant tested. The sprayed plants and controls were set aside for approximately one hour to allow the solutions to dry and were then placed in the greenhouse. After ten days the plants were visually inspected to determine the extent of foliage injury. A rating of 1 indicates no perceptible injury; 5 indicates the plant was dead and ratings of 2, 3 and 4 indicate intermediate degrees of injury based upon the number and extent to which leaves were injured.

Row | Compound | Pre-emergent Herbicidal, Mustard (Mustard) | Miticidal, Egg [1] | Post-emergent Herbicidal, Soybean (Soybean)
1 | CCCCC(CC)C(=O)OC1=C(c2ccccc2Cl)C(=O)CC1 (stereo not drawn) [Compound 1] | 5 | A | 3
2 | O=C1CCC(OC(=O)c2ccccc2)=C1c1ccccc1Cl [Compound 2] | 1 | A | 2
3 | CC(=O)OC1=C(c2ccc(Cl)cc2Cl)C(=O)CC1 [Compound 3] | 1 | A | 2
4 | CC(C)C(=O)OC1=C(c2ccc(Cl)cc2Cl)C(=O)CC1 [Compound 4] | 1 | B | 2
5 | CCCCC(CC)C(=O)OC1=C(c2ccc(Cl)cc2Cl)C(=O)CC1 (stereo not drawn) [Compound 5] | 1 | A | 2
6 | CCCCCCCCCCCCCCCC(=O)OC1=C(c2ccc(Cl)cc2Cl)C(=O)CC1 [Compound 6] | 1 | B | 1
7 | CCCCC(CC)C(=O)OC1=C(c2ccccc2C)C(=O)CC1 (stereo not drawn) [Compound 7] | 1 | A | 2
8 | CCCCCCCCCCCCCCCC(=O)OC1=C(c2ccccc2C)C(=O)CC1 [Compound 8] | 1 | B | 3
9 | CCCCC(CC)C(=O)OC1=C(c2ccc(C)cc2C)C(=O)CC1 (stereo not drawn) [Compound 9, 3-(2-ethylhexanoyloxy)-2-(2', 4'-dimethylphenyl)-2-cyclopentenone] | 2 | A | 1
10 | Cc1ccc(C2=C(OC(=O)c3ccccc3)CCC2=O)c(C)c1 [Compound 10] | 1 | B | 1
11 | CC(=O)OC1=C(c2cc(C)ccc2C)C(=O)CC1 [Compound 11] | 3 | C | 2
12 | Cc1ccc(C)c(C2=C(OC(=O)C(C)C)CCC2=O)c1 [Compound 12] | 1 | B | 3
13 | CCCCC(CC)C(=O)OC1=C(c2cc(C)ccc2C)C(=O)CC1 (stereo not drawn) [Compound 13] | 1 | A | 3
14 | CCCCCCCCCCCCCCCC(=O)OC1=C(c2cc(C)ccc2C)C(=O)CC1 [Compound 14] | 1 | A | 3
15 | CC(=O)OC1=C(c2cc(C)ccc2C)C(=O)C(C)C1 (stereo not drawn) [Compound 15] | 2 | B | 2
16 | Cc1ccc(C)c(C2=C(OC(=O)C(C)C)CC(C)C2=O)c1 (stereo not drawn) [Compound 16] | 2 | B | 2

Row | Compound | Pre-emergent Herbicidal, Mustard (Mustard) | Miticidal, Egg [1] | Post-emergent Herbicidal, Soybean (Soybean)
17 | CCCCC(CC)C(=O)OC1=C(c2cc(C)ccc2C)C(=O)C(C)C1 (stereo not drawn) [Compound 17] | 1 | A | 3
18 | CCCCCCCCCCCCCCCC(=O)OC1=C(c2cc(C)ccc2C)C(=O)C(C)C1 (stereo not drawn) [Compound 18] | 1 | A | 2
19 | CC(=O)OC1=C(c2ccccc2C)C(=O)C2CCCCC12 (stereo not drawn) [Compound 19, 3-acetoxy-2-(2'-methylphenyl)-4,5,6,7,8,9-hexahydro-2-indenone] | 3 | A | 3
20 | Cc1ccccc1C1=C(OC(=O)C(C)C)C2CCCCC2C1=O (stereo not drawn) [Compound 20] | 3 | A | 3
21 | CCCCC(CC)C(=O)OC1=C(c2ccccc2C)C(=O)C2CCCCC12 (stereo not drawn) [Compound 21, 3-(2-Ethylhexanoyloxy)-2-(2'-methylphenyl)-4,5,6,7,8,9-hexahydro-2-indenone] | 1 | A | 2
22 | Cc1ccccc1C1=C(OC(=O)C(C)(C)C)C2CCCCC2C1=O (stereo not drawn) [Compound 22] | 3 | A | 3
23 | CCCCCCCCCC(=O)OC1=C(c2ccccc2C)C(=O)C2CCCCC12 (stereo not drawn) [Compound 23] | 3 | A | 3
24 | CCCCCCCCCCCCCCCC(=O)OC1=C(c2ccccc2C)C(=O)C2CCCCC12 (stereo not drawn) [Compound 24] | 3 | A | 2
25 | CC(=O)OC1=C(c2ccc(C)cc2C)C(=O)C2CCCCC12 (stereo not drawn) [Compound 25] | 3 | A | 2
26 | CCCCC(CC)C(=O)OC1=C(c2ccc(C)cc2C)C(=O)C2CCCCC12 (stereo not drawn) [Compound 26, 3-(2-ethylhexanoyloxy)-2-(2',4'-dimethylphenyl)-4,5,6,7,8,9-hexahydro-2-indenone] | 1 | A | 2
27 | Cc1ccc(C2=C(OC(=O)c3ccccc3)C3CCCCC3C2=O)c(C)c1 (stereo not drawn) [Compound 27, 3-benzoyloxy-2-(2',4'-dimethylphenyl)-4,5,6,7,8,9-hexahydro-2-indenone] | 5 | A | 2
28 | CC(=O)OC1=C(c2cc(C)ccc2C)C(=O)C2CCCCC12 (stereo not drawn) [Compound 28] | 1 | A | 2
29 | Cc1ccc(C)c(C2=C(OC(=O)C(C)C)C3CCCCC3C2=O)c1 (stereo not drawn) [Compound 29] | 1 | A | 2
30 | CCCCC(CC)C(=O)OC1=C(c2cc(C)ccc2C)C(=O)C2CCCCC12 (stereo not drawn) [Compound 30, 3-(2-ethylhexanoyloxy)-2-(2',5'-dimethylphenyl)-4,5,6,7,8,9-hexahydro-2-indenone] | 1 | A | 1
31 | Cc1ccc(C)c(C2=C(OC(=O)C(C)(C)C)C3CCCCC3C2=O)c1 (stereo not drawn) [Compound 31] | 1 | A | 2
32 | CCCCCCCCCC(=O)OC1=C(c2cc(C)ccc2C)C(=O)C2CCCCC12 (stereo not drawn) [Compound 32] | 1 | A | 1
